Data as given in patent publication US9187728B2, “Method for producing hematopoietic stem cells” (Nissan Chemical Industries, Ltd., priority 2010, dated 2015).

How the values were obtained:
CD34+CD38- cells = test: Expansion of CD34+CD38- cells using human cord blood-derived CD34+ cells (liquid culture, flow cytometry); assay type: cell-based; details: for expansion activity on CD34+CD38- cells: 7 days; for expansion activity on hematopoietic stem cells: general statement, compared with the other specific compounds
Description: (§1) Human cord blood-derived CD34^+ cells were purchased from Lonza and plated on a 24-well plate (Corning) (10000 cells/1 mL/well). As the culture medium, StemSpan SFEM (StemCell Technologies) containing 100 ng/mL SCF (Wako Pure Chemical Industries) and 20 ng/mL TPO (PeproTech) in terms of final concentration was used, and garcinol (COSMO BIO) dissolved in dimethyl sulfoxide was added to the medium in an amount of 0.1% (v/v) to a final concentration of 5 or 10 μM. Similarly, isogarcinol (Reference Synthetic Example 1) dissolved in dimethyl sulfoxide was added to the medium in an amount of 0.1% (v/v) to a final concentration of 2 or 5 μM. As a negative control, the medium containing 0.1% (v/v) dimethyl sulfoxide was used.
After the cells were incubated in liquid culture at 37° C. for 7 days in a CO2 incubator (5% CO2), the number of viable cells was counted by trypan blue assay. The number of CD34^+CD38^− cells was calculated as follows. After the incubation, the cells in the liquid culture was stained with a CD34 antibody (APC, Becton, Dickinson and Company) and a CD38 antibody (P E, Becton, Dickinson and Company), then washed with PBS(−) containing 2% (v/v) FBS and stained with propidium iodide (Sigma-Aldrich Japan) added to a final concentration of 5 μg/mL. The stained cells were analyzed with a BD FACSCANTO™ II flow cytometer (Becton, Dickinson and Company) to determined the proportions of CD34^+ cells and CD34^+CD38^− cells, which was multiplied by the number of viable cells to calculate the numbers of CD34^+ cells and CD34^+CD38^− cells.
Human cord blood-derived CD34^+ cells purchased from the same supplier as in Assay Example 1 were plated on a 24-well plate (Corning) (10000 cells/1 mL/well). As the culture medium, StemSpan SFEM (StemCell Technologies) containing 100 ng/mL SCF (Wako Pure Chemical Industries) and 20 ng/mL TPO (PeproTech) in terms of final concentration was used, and O-monomethylisogarcinol (Reference Synthetic Example 2) dissolved in dimethyl sulfoxide was added to the medium to a final concentration of 1 or 2 μM.
(§2) After the cells were incubated in liquid culture at 37° C. for 7 days in a CO2 incubator (5% CO2), the number of viable cells was counted by trypan blue assay. The number of CD34^+CD38^− cells was calculated in the same manner as in Assay Example 1.
Human cord blood-derived CD34^+ cells purchased from the same supplier as in Assay Example 1 were plated on a 24-well plate (Corning) (10000 cells/1 mL/well). […]

CD34+ cells = test: Expansion of CD34+ cells using human cord blood-derived CD34+ cells (liquid culture, flow cytometry); assay type: cell-based; details: Assay Example 2; 1 or 2 μM; 100 ng/mL SCF + 20 ng/mL TPO; 7 days
Description: as §1, with “As a negative control, the medium containing 0.1% (v/v) dimethyl sulfoxide was used.” left out
After the cells were incubated in liquid culture at 37° C. for 7 days in a CO2 incubator (5% CO2), the number of viable cells was counted by trypan blue assay. The number of CD34^+CD38^− cells was calculated as follows. […] The stained cells were analyzed with a BD FACSCANTO™ II flow cytometer (Becton, Dickinson and Company) to determined the proportions of CD34^+ cells and CD34^+CD38^− cells, which was multiplied by the number of viable cells to calculate the numbers of CD34^+ cells and CD34^+CD38^− cells. […]
as §2

[1] = system: SCID-repopulating cells (SRC); test: Transplantation of cell culture into immunodeficient (NOD/SCID) mice (SRC assay); assay type: in vivo, human; details: CD34+ cells cultured with 10 μM, transplanted into irradiated NOD/SCID mice, 8 weeks; vs cells cultured without compound (FIG. 5)
Description: Human cord blood-derived CD34^+ cells cultured in the presence of 10 μM garcinol (COSMO BIO) in terms of final concentration or in the absence of garcinol (i.e., in a culture medium containing 0.1% (v/v) dimethyl sulfoxide) in the same manner as in Assay Example 1 were transplanted into at least five 7- to 8-week-old NOD/SCID mice by tail vein injection at 4 to 5×10^4 cells/mouse in terms of the initial number of CD34^+ cells after a sublethal dose of irradiation (2.5 Gy). Eight weeks after the transplantation, the mice were killed, and the bone marrow cells were collected from both thighbones. Subsequently, the bone marrow cells were stained with a human CD45 antibody (APC, Becton, Dickinson and Company), then washed with PBS(−) containing 2%(v/v) FBS and stained with propidium iodide (Sigma-Aldrich Japan) added to a final concentration of 5 μg/mL. The stained cells were analyzed by flow cytometry to determined the proportion of human CD45^+ cells in the bone marrow cells.

HPP-CFC colonies = test: Expansion of HPP-CFU using human cord blood-derived CD34+ cells (blood cell colony forming assay); assay type: cell-based; details: then 500 cells/dish MethoCult GF H4435, 12 days, None = 19
Description: The effects of garcinol and isogarcinol as compounds of the present invention on hematopoietic progenitor cells were measured by blood cell colony forming assay. The liquid cell cultures obtained in Assay Example 1 were poured into 3.5-cm Petri dishes with MethoCult GF H4435 culture medium (StemCell Technologies) at 500 cells/dish and incubated in a CO2 incubator (5% CO2, 37° C.) for 12 days. The number of HPP-CFC colonies in each plate was counted under a microscope routinely. The assay was carried out at least in duplicate, and the numbers of HPP-CFC colonies were averaged.

SMILES	expansion activity on CD34+CD38- cells (CD34+CD38- cells; Assay Example 2, 1 or 2 μM, 100 ng/mL SCF + 20 ng/mL TPO, vs absence of compound (FIG. 3))	expansion activity on CD34+ cells (CD34+ cells)	SRC expanding effect (proportion of human CD45+ cells in bone marrow) [1]	expansion activity on CD34+CD38- cells (CD34+CD38- cells; Assay Example 3, 10 μM, in the presence of SCF, SCF and TPO, or SCF, TPO and FL, compared with absence of the compound (FIG. 4))	expansion activity on hematopoietic stem cells (CD34+CD38- cells)	Number of HPP-CFC colonies (HPP-CFC colonies; 10 μM in 7-day liquid culture (SCF+TPO))	Number of HPP-CFC colonies (HPP-CFC colonies; 5 μM in 7-day liquid culture (SCF+TPO))
COc1ccc(C(=O)C2=C3OC(C)(C)[C@@H](CC=C(C)C)C[C@@]34C[C@@H](CC=C(C)C)C(C)(C)[C@@](CC=C(C)C)(C2=O)C4=O)cc1O [O-monomethylisogarcinol, O-Monomethylisogarcinol]	excellent expansion activity	excellent expansion activity	–	–	–	–	–
C=C(C)[C@@H](CC=C(C)C)C[C@@]12C[C@@H](CC=C(C)C)C(C)(C)[C@@](CC=C(C)C)(C(=O)C(C(=O)c3ccc(O)c(O)c3)=C1O)C2=O [garcinol, Garcinol]	–	–	excellent SRC expanding effect	higher expansion activity	especially strong expansion activity	35	–
CC(C)=CC[C@H]1C[C@@]23C[C@@H](CC=C(C)C)C(C)(C)[C@@](CC=C(C)C)(C(=O)C(C(=O)c4ccc(O)c(O)c4)=C2OC1(C)C)C3=O [isogarcinol, Isogarcinol]	–	–	–	–	especially strong expansion activity	–	42
